Data from the supplement of paper PMC10307832.

Assays:
Experiment in all cases: relative viability (nuclei count vs DMSO), 5 days (fraction); higher = more cells survive
[1] = compound: COc1cc2nc(N3CCCN(C)CC3)nc(NC3CCN(Cc4ccccc4)CC3)c2cc1OC + Nc1nc2[nH]cc(CCc3ccc(C(=O)N[C@@H](CCC(=O)O)C(=O)O)cc3)c2c(=O)[nH]1 [Pemetrexed] (partner 0.2 µM)
Summary of the method: (§1)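 Each reported value is a median over duplicate plates. It expresses relative viability: treated-well nuclei count divided by vehicle-well nuclei count. Lung cancer cell lines in 1536-well plates were dosed by pin tool a day after seeding, alone with one drug or with a fixed anchor-drug dose plus five library-drug doses (not always all listed) in √10 steps, and nuclei were counted after 5 days.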

AZD6482 + Pemetrexed = compound: Cc1cc([C@@H](C)Nc2ccccc2C(=O)O)c2nc(N3CCOCC3)cc(=O)n2c1 [AZD6482] + Nc1nc2[nH]cc(CCc3ccc(C(=O)N[C@@H](CCC(=O)O)C(=O)O)cc3)c2c(=O)[nH]1 [Pemetrexed] (partner 0.2 µM)
Summary of the method: as §1

AZD6482 + Tozasertib = compound: Cc1cc([C@@H](C)Nc2ccccc2C(=O)O)c2nc(N3CCOCC3)cc(=O)n2c1 [AZD6482] + Cc1cc(Nc2cc(N3CCN(C)CC3)nc(Sc3ccc(NC(=O)C4CC4)cc3)n2)n[nH]1 [Tozasertib] (partner 0.1 µM)
Summary of the method: as §1

AZD6482 + Foretinib = compound: Cc1cc([C@@H](C)Nc2ccccc2C(=O)O)c2nc(N3CCOCC3)cc(=O)n2c1 [AZD6482] + COc1cc2c(Oc3ccc(NC(=O)C4(C(=O)Nc5ccc(F)cc5)CC4)cc3F)ccnc2cc1OCCCN1CCOCC1 [Foretinib] (partner 0.25 µM)
Summary of the method: as §1

Row | Cell Line | relative viability ([1]; first compound 0.2 µM) | relative viability ([1]; first compound 0.6325 µM) | relative viability ([1]; first compound 2 µM) | relative viability ([1]; first compound 6.325 µM) | relative viability (AZD6482 + Pemetrexed; first compound 0.08 µM) | relative viability (AZD6482 + Pemetrexed; first compound 0.253 µM) | relative viability (AZD6482 + Pemetrexed; first compound 0.8 µM) | relative viability (AZD6482 + Pemetrexed; first compound 2.53 µM) | relative viability (AZD6482 + Pemetrexed; first compound 8 µM) | relative viability (AZD6482 + Tozasertib; first compound 0.08 µM) | relative viability (AZD6482 + Tozasertib; first compound 0.253 µM) | relative viability (AZD6482 + Tozasertib; first compound 0.8 µM) | relative viability (AZD6482 + Tozasertib; first compound 2.53 µM) | relative viability (AZD6482 + Tozasertib; first compound 8 µM) | relative viability (AZD6482 + Foretinib; first compound 0.08 µM) | relative viability (AZD6482 + Foretinib; first compound 0.253 µM) | relative viability (AZD6482 + Foretinib; first compound 0.8 µM) | relative viability (AZD6482 + Foretinib; first compound 2.53 µM) | relative viability (AZD6482 + Foretinib; first compound 8 µM)
1 | NCI-H1755 | 0.459 | 0.415 | 0.414 | 0.368 | 0.416 | 0.435 | 0.436 | 0.383 | 0.36 | 0.608 | 0.537 | 0.688 | 0.478 | 0.519 | 0.807 | 0.834 | 0.851 | 0.669 | 0.603
2 | HCC-78 | 0.912 | 0.899 | 0.918 | 1.01 | 0.87 | 0.857 | 0.926 | 0.862 | 0.953 | 0.327 | 0.335 | 0.271 | 0.317 | 0.227 | 0.471 | 0.493 | 0.517 | 0.351 | 0.349
3 | LOU-NH91 | 0.411 | 0.393 | 0.401 | 0.398 | 0.376 | 0.373 | 0.444 | 0.521 | 0.493 | 0.551 | 0.66 | 0.605 | 0.546 | 0.496 | 0.826 | 0.846 | 0.993 | 0.603 | 0.677
4 | NCI-H3122 | 0.206 | 0.198 | 0.19 | 0.2 | 0.191 | 0.198 | 0.2 | 0.189 | 0.189 | 0.355 | 0.348 | 0.344 |  | 0.351 | 0.937 | 0.846 | 1.09 | 0.946 | 0.926
5 | HCC-827 | 0.259 | 0.277 | 0.215 | 0.235 | 0.251 | 0.254 | 0.245 | 0.245 | 0.238 | 0.379 | 0.405 | 0.422 | 0.342 | 0.287 | 0.986 | 0.878 | 0.945 | 0.678 | 0.499
6 | SK-LU-1 | 0.952 | 0.949 | 1.03 | 0.889 |  | 0.906 | 1.04 | 0.738 | 0.714 |  | 0.334 | 0.295 | 0.242 | 0.261 |  | 0.735 | 0.688 | 0.555 | 0.584
7 | NCI-H1975 | 0.289 | 0.301 | 0.309 | 0.267 | 0.257 | 0.28 | 0.31 | 0.303 | 0.308 | 0.624 | 0.717 | 0.701 | 0.629 | 0.463 | 0.889 | 0.872 | 0.951 | 0.709 | 0.558
8 | NCI-H1651 | 0.623 | 0.598 | 0.597 | 0.624 | 0.578 | 0.545 | 0.556 | 0.401 | 0.482 | 0.68 | 0.647 | 0.598 | 0.565 | 0.592 | 0.624 | 0.699 | 0.736 | 0.566 | 0.636
9 | NCI-H441 | 0.256 | 0.264 | 0.246 | 0.276 | 0.261 | 0.267 | 0.276 |  | 0.282 | 0.631 | 0.545 | 0.632 |  | 0.527 | 0.852 | 0.806 | 1.21 |  | 0.87
10 | LCLC-103H | 0.495 | 0.455 | 0.443 | 0.47 | 0.491 | 0.506 | 0.49 | 0.462 | 0.456 | 0.486 | 0.456 | 0.472 | 0.412 | 0.303 | 0.603 | 0.55 | 0.56 | 0.379 | 0.33
11 | LCLC-97TM1 | 0.194 | 0.156 | 0.189 | 0.199 | 0.15 | 0.166 | 0.164 |  | 0.162 | 0.206 | 0.208 | 0.168 | 0.158 | 0.128 | 0.854 | 0.778 | 0.823 | 0.595 | 0.596
12 | NCI-H1355 | 1.06 | 1.03 | 1.01 | 0.945 | 0.939 | 1.07 | 1.07 | 0.856 | 0.875 | 0.462 | 0.419 | 0.43 | 0.435 | 0.441 | 0.769 | 0.812 | 0.962 | 0.713 | 0.641
13 | HOP-62 | 0.318 | 0.257 | 0.3 | 0.292 | 0.335 | 0.386 | 0.363 | 0.335 | 0.379 | 0.374 | 0.382 | 0.311 | 0.363 | 0.332 | 1.12 | 1.15 | 1.23 | 0.94 | 1.02
14 | NCI-H2085 | 0.827 | 1.02 | 0.943 | 0.87 | 0.567 | 0.384 | 0.407 | 0.317 | 0.299 | 0.656 | 0.539 | 0.407 | 0.393 | 0.351 | 0.62 | 0.637 | 0.338 | 0.308 | 0.29
15 | SW 900 | 0.484 | 0.504 | 0.491 | 0.505 | 0.479 | 0.476 | 0.501 | 0.358 | 0.384 | 0.559 | 0.506 | 0.561 |  | 0.567 | 0.751 | 0.753 | 0.773 |  | 0.792
